The record followed here is patent US10172927B2, “Detection/measurement of malaria infection disease utilizing natural immunity by hemozoin induction, screening of preventative or therapeutic medicine for malaria infection disease, and regulation of natural immunity induction” (Osaka University, priority 2004, dated 2019).

The assay deals with FL-DCs stimulated with HZ. As to the kind of experiment: Chloroquine effect on HZ-induced cytokine production by FL-DCs. The class given is cell-based, mouse. The conditions noted are these: 30 μM HZ, CQ 10 μM, 24 hours; P<0.05 HZ vs. HZ+CQ. How it is done:
Single cell suspensions of spleen cells (5×10^5 cells/well) were cultured in complete RPMI 1640 medium supplemented with 10% FCS for 48 hours. F1t3 ligand-induced bone marrow-derived DCs (FL-DCs) (1×10^5 cells/well) were generated by culturing bone marrow cells with F1t3 ligand (100 ng/ml; Pepro Tech) for eight to nine days in DMEM medium containing 10% FCS. The cells were stimulated in the presence of the indicated stimuli and supernatants were collected for cytokine ELISA.
Murine TNF-α, IL-12p40, MCP-1, IL-6 (R & D Systems), and IFNα (PBL Bio. Lab) were measured either from the supernatants or the sera by ELISA according to the manufacturer's instructions.
The anti-malarial formulation, chloroquine (CQ), has been reported to inhibit proinflammatory responses during malaria infection in addition to endosome/lysosome maturations and malarial hemozoin crystal formations, whereas the exact mechanism of anti-malarial effects of CQ is still under debate (Int. J. Parasitol. 32: 1645-1653, 2002; Life Sci. 74: 1957-1972, 2004). […] To examine the effect of CQ to HZ-induced proinflammatory responses, FL-DCs were stimulated with HZ in the presence of CQ. […]
(a) To detect DNA contamination, HZ was run on an agarose gel and stained with ethidium bromide. […] Then the supernatants were collected and measured for TNFα or IL-12p40 by ELISA. […] “n.d.” means “not detected”.

Regarding `CCN(CC)CCCC(C)Nc1ccnc2cc(Cl)ccc12` (stereo not shown) [CQ, chloroquine], the “HZ-induced TNFα and IL-12p40 productions by FL-DCs in the presence of CQ” value is “diminished”.
